Data from patent publication US20250041387A1, “POLYPEPTIDE SEQUENCE OF KDM6B AND APPLICATION OF KDM6B IN REGULATING AND CONTROLLING FUNCTION OF MESENCHYMAL STEM CELL” (BEIJING STOMATOLOGICAL HOSPITAL, CAPITAL MEDICAL UNIVERSITY, priority 2021, published 2025).
“And” between values parts separate entries of the source, which are not always exact repeats. Equal values may be shown once.

Legend:
[1] = test system: senescent bone marrow mesenchymal stem cells; test: β-gal staining in senescent BMSCs of aged mice; assay type: cell-based, C57BL/6 mice; conditions: FIG. 5A
Description: Prior to the start of the experiment, the GENMED staining solution (Reagent E) in the kit was taken out of the refrigerator at −20° C., and thawed in an ice bath. Then 9.5 mL of GENMED dilution (Reagent D) was added into a 15 ml conical centrifuge tube, added with 500 μL of GENMED staining solution (Reagent E), mixed well, and then preheated in a 37° C. thermostatic sink. The obtained mixture was labeled as GENMED staining working solution.

[2] = test system: defected palatal mucosa of mice; test: Palatal mucosa defect in mice; assay type: in vivo, Balb/c mice; conditions: for area of unhealed defected palatal mucosa: individual mice, FIG. 16
[3] = test system: minipig periodontitis model with bone defect; test: Minipig periodontitis model, new bone volume by CBCT three-dimensional reconstruction; assay type: in vivo, Wuzhishan minipigs; conditions: week 12 after injection, 60 μl per side; individual sides; FIG. 9; listed as 114 peptide
Description: Method: An experimental minipig periodontitis model was established by creating bone defect and ligating silk threads. Specifically, minipigs were conventionally anaesthetized, and extraorally disinfected. The mandibular first permanent molar of the minipig was selected as the experimental tooth, which was subjected to intra-sulcal incision and vertical incision. The mucoperiosteal flap was opened, the mesia-buccal root of the mandibular first permanent molar of the minipig was exposed by bone removal, and a bone defect with a size of 3 mm×5 mm×7 mm was created. That is, 3 mm×5 mm×7 mm of the mesial proximal alveolar bone was removed, and the mesiobuccal root buccal bone plate and distal alveolar bone (3 mm×5 mm, the gingival depth was level with the mesial proximal surface) were removed. The suture in situ was performed. The experimental tooth neck was ligated with silk threads. […]
Drug injection treatment was performed 4 weeks after the modeling operation. The effect of bioactive polypeptide 114 on the regeneration and repair capacity of defected tissues mediated by stem cells in minipigs of periodontitis was assessed by comparing the clinical indicators and imaging examination after modeling (−4 w), 4 weeks after modeling without drug injection (0 w) and 3 months after drug treatment (12 w). […]

[4] = test system: defected dorsal skin of mice; test: Dorsal full-thickness skin defect in mice; assay type: in vivo, Balb/c mice; design: area of the defect region (dorsal skin): unit not given here; conditions: for area of the defect region (dorsal skin) / Healing rate (dorsal skin defect): individual mice; for Healing rate (dorsal skin defect): FIG. 18
Description: Fifteen 8-month-old male Balb/c mice were randomly divided into three groups: PBS group, control group and 114 group, with five mice in each group.
Before the establishment of the defect model, the mice were anaesthetized by injection of 4% chloral hydrate at 0.2 ml/20 g, and the skin was prepared. A circular full-thickness skin defect with a diameter of 6 mm on the back of the mice was created using a skin punch. On the day of the defect creation, the third day, the seventh day, the tenth day, the fourteenth day, the seventeenth day, and the twenty-first day after the defect creation, an equal amount of 100 μl of PBS, 10 μl/ml control peptide, and 10 μl/ml 114 peptide was separately injected at four equidistant sites at 2 mm from the edge of the defect.
The defect region was photographed before each injection, and the area of the defect region was calculated by using Image-Pro plus software. The healing rate was calculated as: healing rate=(area of the defect region on day 0-area of the defect region on day 14/21)/area of the defect region on day 0.

[5] = test system: OVX mouse of osteoporosis model; test: OVX mouse osteoporosis model, micro-CT of distal femur; assay type: in vivo, C57BL/6 mice; conditions: OVX mice, 10 mg/kg intraperitoneally for 3 months from 6 weeks after ovary removal, individual mice, FIG. 19B, listed as 114 peptide
Description: Twenty five 3-month-old C57BL/6 mice were purchased from Vital River and randomly divided into sham operation group, OVX group, PBS group, control peptide group and 114 peptide group, with five mice in each group. The osteoporosis model was established by removing bilateral ovaries in OVX, PBS, control peptide and 114 peptide groups. In the sham operation group, ovaries were not removed. 6 weeks after ovary removal, the mice were intraperitoneally injected with control peptide and peptide 114 at 10 mg/kg for continuous 3 months, and then sacrificed. For the distal femur, the left distal femur of each mouse was scanned ex vivo using a micro-CT system. Each segment of bone trabeculae was selected for segmentation, and subjected to 3D reconstruction. BMD was calculated.

[6] = test system: minipig periodontitis model with bone defect; test: Minipig periodontitis model, clinical indicators (PD, AL, GR) and intraoral observation; assay type: in vivo, Wuzhishan minipigs; design: attachment loss (AL) / gingival recession (GR): unit not given here; conditions: for attachment loss (AL) / gingival recession (GR) / probing depth (PD): individual sides
Description: Method: An experimental minipig periodontitis model was established by creating bone defect and ligating silk threads. Specifically, minipigs were conventionally anaesthetized, and extraorally disinfected. The mandibular first permanent molar of the minipig was selected as the experimental tooth, which was subjected to intra-sulcal incision and vertical incision. The mucoperiosteal flap was opened, the mesia-buccal root of the mandibular first permanent molar of the minipig was exposed by bone removal, and a bone defect with a size of 3 mm×5 mm×7 mm was created. That is, 3 mm×5 mm×7 mm of the mesial proximal alveolar bone was removed, and the mesiobuccal root buccal bone plate and distal alveolar bone (3 mm×5 mm, the gingival depth was level with the mesial proximal surface) were removed. The suture in situ was performed. The experimental tooth neck was ligated with silk threads. […] The successful establishment of periodontal bone defect model was verified by CT imaging and clinical examination.
12 Wuzhishan minipigs were used to establish periodontitis model, with a total of 24 sides, which were randomly divided into 3 groups. Each side was injected with a drug at an amount of 60 μl. Group 1: flap surgery with scraping+injection of sterile saline after modeling (untreated control group); group 2: flap surgery with scraping+injection of control polypeptide after modeling (control group); group 3: flap surgery with scraping+injection of bioactive polypeptide 114 after modeling (experimental group).
Drug injection treatment was performed 4 weeks after the modeling operation. The effect of bioactive polypeptide 114 on the regeneration and repair capacity of defected tissues mediated by stem cells in minipigs of periodontitis was assessed by comparing the clinical indicators and imaging examination after modeling (−4 w), 4 weeks after modeling without drug injection (0 w) and 3 months after drug treatment (12 w).
Clinical indicators (PD, AL and GR) detection and CT imaging were performed before the experiment, after modeling (−4 w) and 3 months after treatment (12 w).
Periodontal probing depth (PD): The depth of the periodontal pocket on the mesiobuccal side of the tooth was recorded at a probing pressure of 20-25 g.
Gingival recession (GR): The distance from the cemento-enamel junction to the gingival margin was measured using a periodontal probe. If there was gingival recession, the cementoenamel junction was exposed, and the gingival margin was located at the root of the cementoenamel junction, then the distance between the two was recorded as a positive value; if there was no gingival recession, the gingival margin was located at the crown of the cementoenamel junction, then the distance between the two was recorded as a negative value.
Attachment loss (AL): The degree of attachment loss was determined by subtracting GR from the periodontal pocket depth. If the two numbers were subtracted to zero, or the cementoenamel junction cannot be detected, it means there was no attachment loss. If the gingival recession caused the gingival margin to locate at the root of the cementoenamel junction, the two numbers were added to obtain the degree of the attachment loss. • 2.1 Probing depth (PD) was shown in Table 17 and FIG. 10.

[7] = 0 w, 4 weeks after modeling without drug injection, listed as 114 peptide
[8] = 12 w after injection, listed as 114 peptide

Substance: FITC-(Acp)-KEKSRRVLGNLDLQSYGRKKRRQRRR [peptide 102]
- number of β-gal positive cells [1]: significant reduction

Substance: FITC-(Acp)-ADLTISHCAADVVRAYGRKKRRQRRR [peptide 114]
- healing of defected palatal mucosa (observation) ([2]; compared to PBS group and control peptide group, FIG. 15): obviously healed
- area of unhealed defected palatal mucosa ([2]; day 14): 5.782 and 7.254 and 8.231 and 5.52 and 6.401
- area of unhealed defected palatal mucosa ([2]; day 21): 2.259 and 0.3319 and 1.964 and 2.33 and 2.213
- number of β-gal positive cells [1]: significant reduction
- new bone formation volume [3]: better and higher and 101.99 mm^3 and 80.68 mm^3 and 79.08 mm^3 and 80.48 mm^3 and 76.48 mm^3 and 85.49 mm^3
- area of the defect region (dorsal skin) ([4]; Day 0): 6226 and 6554 and 6917 and 5532 and 4700
- area of the defect region (dorsal skin) ([4]; Day 10): 1396 and 3701 and 2313 and 983 and 1816
- Healing rate (dorsal skin defect) ([4]; Day 10): 0.7758 and 0.4353 and 0.6656 and 0.8223 and 0.6136
- area of the defect region (dorsal skin) ([4]; Day 14): 681 (2×) and 722 and 486 and 715
- Healing rate (dorsal skin defect) ([4]; Day 14): 0.8906 and 0.8898 and 0.9015 and 0.9121 and 0.8479
- healing of defected dorsal skin (observation) ([4]; days 0 and 14, compared to PBS and control peptide groups, FIG. 17): significant healing
- bone density (BMD) of femoral bone trabeculae [5]: significant up-regulation and 0.1440 and 0.1242 and 0.1416 and 0.1071 and 0.1137
- attachment loss (AL) [6, 7]: 9.5 (3×) and 9 and 12 (2×)
- gingival recession (GR) [6, 7]: 2.5 (3×) and 1 (2×) and 0.5 and 3 and 4.5
- probing depth (PD) [6, 7]: 7.5 (3×) and 8.5 and 7 and 8 and 9 (2×)
- attachment loss (AL) [6, 8]: significantly lower and 3 and 2.5 and 1.5 and 4
- gingival recession (GR) [6, 8]: significantly lower and 0.5 and 1
- probing depth (PD) [6, 8]: significantly lower and 2.5 and 2 and 0.5 and 1 and 3
- mesenchymal stem cells-mediated regeneration of periodontal tissue ([6]; CT imaging, bone volume analysis and clinical examination): promoted
- restoration effect of soft tissues (intraoral images) ([6]; week 12 after injection, FIG. 14): better
- probing depth (PD) ([6]; −4 w, before drug injection, FIG. 10, listed as 114 peptide): 1 (7×) and 2
- gingival recession (GR) ([6]; −4 w, before drug injection, FIG. 12): 0
